Reference: patent US9677140B2, “Molecular diagnostic test for cancer” (Almac Diagnostics Limited, priority 2010, dated 2017)

Legend:
[1] = tested on: HCC1937 BRCA1 mutant and HCC1937-BR (BRCA1 corrected) breast cancer cell-lines; conditions: HCC1937 BRCA1 mutant cell-line relative to the BRCA1 corrected cell-line (HCC1937-BR); constant exposure, 12-14 days
Experimental: The HCC1937 parental, HCC1937-EV and HCC1937-BR cell-lines were kindly donated by Professor Paul Harkin from Queen's University College Belfast (QUB). The cell-lines were routinely maintained in RPMI-1640 medium supplemented with 50 U penicillin/ml, 50 μg streptomycin/ml, 2 mM glutamine, 1 mM Sodium Pyruvate and 20% (v/v) fetal bovine serum (FBS). The HCC1937-EV and HCC937-BR cell-lines also required 0.2 ml/mg geneticin. Cell-lines were cultured at 37° C. with a humidified atmosphere of 5% CO2.
Twenty-four hours following seeding the cells were exposed to medium containing increasing doses of drug. Cell medium was replenished every 4-5 days. After 12-14 days the cells were fixed in methanol, stained with crystal violet and counted. The percentage survival of control for a given dose was calculated as the plating efficiencies for that dose divided by the plating efficiencies of vehicle-treated cells. Survival curves and half maximal inhibitory concentration (IC50) values were calculated using GraphPad Prism.

[2] = tested on: HCC1937 BRCA1 mutant and HCC1937-BR (BRCA1 corrected) breast cancer cell-lines; test: Cell viability assay (CellTitre-Glo), determination of cisplatin sensitivity; assay type: cell-based; conditions: HCC1937 BRCA1 mutant cell-line relative to the BRCA1 corrected cell-line (HCC1937-BR); 96 hours exposure
Experimental: For measurement of sensitivity to cisplatin, exponentially growing cells were seeded into 96-well plates. […] Cells were incubated in the presence of drug for 96 hours following which time the viability of the cells was assessed using the Promega CellTitre-Glo luminescent cell viability assay. The sensitivity of the cells was calculated as the percentage of vehicle (DMSO) control.

SMILES | sensitivity to PARP-1 inhibitor (clonogenic survival) [1] | sensitivity to cisplatin (cell viability) [2]
O=C(c1cc(Cc2n[nH]c(=O)c3ccccc23)ccc1F)N1CCCNCC1 [KU0058948] | more sensitive | –
N.N.[Cl][Pt][Cl] [cisplatin] | – | more sensitive
